From the NIST ThermoML archive (doi:10.1016/j.tca.2012.04.001)

Tests used:
[1] = 101.33 kPa, Liquid, Vibrating tube method
[2] = xn = mol fraction of the nth substance listed; details: 101 kPa, Liquid, Vibrating tube method

CCCCCl [1-chlorobutane]
[1]
Details | mass density [kg/m3]
288.15 K | 891.747
303.15 K | 875.099
313.15 K | 863.833

CCCCCl [1-chlorobutane] + CCC(C)=O
mass density [kg/m3], [2]
Details | 288.15 K | 303.15 K | 313.15 K
x1 = 0.0603 | 815.629 | 799.819 | 789.16
x1 = 0.102 | 819.225 | 803.373 | 792.657
x1 = 0.1968 | 827.479 | 811.507 | 800.7
x1 = 0.2964 | 835.868 | 819.774 | 808.881
x1 = 0.4017 | 844.704 | 828.487 | 817.514
x1 = 0.4502 | 848.687 | 832.432 | 821.402
x1 = 0.5138 | 853.847 | 837.516 | 826.466
x1 = 0.5467 | 856.509 | 840.156 | 829.081
x1 = 0.6451 | 864.357 | 847.919 | 836.788
x1 = 0.6988 | 868.609 | 852.133 | 840.975
x1 = 0.7994 | 876.429 | 859.878 | 848.676
x1 = 0.8296 | 878.808 | 862.217 | 850.983
x1 = 0.9037 | 884.435 | 867.832 | 856.591
x1 = 0.9336 | 886.734 | 870.09 | 858.856

CCCCCl [1-chlorobutane] + CCCCCCC
mass density [kg/m3], [2]
Details | 288.15 K | 303.15 K | 313.15 K
x1 = 0.0407 | 694.279 | 681.416 | 672.687
x1 = 0.0779 | 699.652 | 686.682 | 677.87
x1 = 0.1497 | 710.416 | 697.174 | 688.219
x1 = 0.2169 | 720.981 | 707.546 | 698.49
x1 = 0.2496 | 726.25 | 712.73 | 703.568
x1 = 0.2565 | 727.4 | 713.798 | 704.618
x1 = 0.2999 | 734.714 | 720.999 | 711.752
x1 = 0.363 | 745.784 | 731.835 | 722.416
x1 = 0.4023 | 752.916 | 738.839 | 729.286
x1 = 0.5009 | 771.635 | 757.206 | 747.426
x1 = 0.5052 | 772.539 | 758.088 | 748.294
x1 = 0.5987 | 791.61 | 776.768 | 766.715
x1 = 0.7138 | 817.052 | 801.757 | 791.398
x1 = 0.7493 | 825.378 | 809.928 | 799.44
x1 = 0.8009 | 837.92 | 822.176 | 811.608
x1 = 0.8875 | 860.284 | 844.077 | 833.14
x1 = 0.9476 | 876.694 | 860.27 | 849.181

CCC(C)=O [butanone]
[1]
Details | mass density [kg/m3]
288.15 K | 810.328
303.15 K | 794.629
313.15 K | 784.008

CCC(C)=O [butanone] + CCCCCCC
mass density [kg/m3], [2]
Details | 288.15 K | 303.15 K | 313.15 K
x2 = 0.0488 | 799.693 | 784.166 | 773.658
x2 = 0.0875 | 791.829 | 776.433 | 766.011
x2 = 0.1976 | 771.92 | 756.87 | 746.674
x2 = 0.2409 | 764.837 | 749.92 | 739.808
x2 = 0.2995 | 755.954 | 741.212 | 731.216
x2 = 0.3726 | 745.725 | 731.183 | 721.184
x2 = 0.444 | 736.645 | 722.313 | 712.588
x2 = 0.4708 | 733.346 | 719.166 | 709.492
x2 = 0.5132 | 728.532 | 714.398 | 704.806
x2 = 0.5941 | 719.999 | 706.083 | 696.646
x2 = 0.7024 | 709.67 | 696.076 | 686.851
x2 = 0.7471 | 705.937 | 692.464 | 683.324
x2 = 0.8016 | 701.621 | 688.317 | 679.294
x2 = 0.8341 | 699.194 | 686.007 | 677.044
x2 = 0.896 | 694.863 | 681.831 | 672.997
x2 = 0.9545 | 691.133 | 678.282 | 669.575

CCCCCCC [heptane]
[1]
Details | mass density [kg/m3]
288.15 K | 688.588
303.15 K | 675.838
313.15 K | 665.838

CCCC(C)=O [pentan-2-one]
[1]
Details | mass density [kg/m3]
288.15 K | 811.491
303.15 K | 796.955
313.15 K | 787.16

CCCC(C)=O [pentan-2-one] + CCCCCCC
mass density [kg/m3], [2]
Details | 288.15 K | 303.15 K | 313.15 K
x2 = 0.0562 | 801.549 | 787.145 | 777.44
x2 = 0.1047 | 793.314 | 778.964 | 769.309
x2 = 0.1946 | 778.848 | 764.618 | 755.031
x2 = 0.2463 | 770.971 | 756.828 | 747.271
x2 = 0.3006 | 763.126 | 748.98 | 739.521
x2 = 0.312 | 761.486 | 747.38 | 737.93
x2 = 0.3664 | 754.046 | 740.019 | 730.578
x2 = 0.4233 | 746.601 | 732.618 | 723.231
x2 = 0.4921 | 738.067 | 724.274 | 714.996
x2 = 0.5566 | 730.511 | 716.874 | 707.632
x2 = 0.6001 | 725.625 | 712.061 | 702.877
x2 = 0.7003 | 715.045 | 701.616 | 692.572
x2 = 0.7526 | 709.893 | 696.524 | 687.536
x2 = 0.8233 | 703.177 | 689.947 | 681.074
x2 = 0.8918 | 697.119 | 684.045 | 675.297
x2 = 0.95 | 692.408 | 679.462 | 670.763

CCCC(C)=O [pentan-2-one] + CCCCCl
mass density [kg/m3], [2]
Details | 288.15 K | 303.15 K | 313.15 K
x2 = 0.0725 | 816.977 | 802.287 | 792.387
x2 = 0.1054 | 819.501 | 804.742 | 794.796
x2 = 0.1321 | 821.521 | 806.72 | 796.726
x2 = 0.2299 | 829.083 | 814.071 | 803.941
x2 = 0.2994 | 834.489 | 819.331 | 809.089
x2 = 0.3515 | 838.598 | 823.323 | 813
x2 = 0.4369 | 845.4 | 829.942 | 819.494
x2 = 0.493 | 849.874 | 834.295 | 823.772
x2 = 0.5816 | 857.018 | 841.242 | 830.585
x2 = 0.6518 | 862.707 | 846.788 | 836.036
x2 = 0.6948 | 866.208 | 850.202 | 839.378
x2 = 0.749 | 870.664 | 854.538 | 843.633
x2 = 0.8055 | 875.345 | 859.097 | 848.116
x2 = 0.8359 | 877.911 | 861.609 | 850.574
x2 = 0.8866 | 882.185 | 865.757 | 854.665
x2 = 0.9145 | 884.566 | 868 | 856.9
